According to US12616666B2, “Coenzyme Q10 formulations in the treatment and prevention of epidermolysis bullosa” (BPGbio, Inc., priority 2017, dated 2026):

What was measured:
[1] = system: adult fibroblasts; assay: Cell proliferation with increasing Coenzyme Q10 concentration; assay type: cell-based, human; conditions: normal fibroblasts, increasing concentration (FIG. 1)
Excerpt: (§1) When applied topically to melanoma tumors in nude mice, a 1.0% CoQ10 formulation inhibited growth and angiogenesis. The mechanism involves the shifting of the cellular bioenergetics from cytoplasmic glycolysis towards mitochondrial oxidative phosphorylation (AACR 2011). The shift in cellular metabolic pathways in cancer including SCC and melanoma results in the recapitulation of the p53 regulated apoptotic potential by re-establishing the balance of pro-apoptic Bcl-2/Bax ratios in a manner conducive for cell death.

[2] = system: normal human keratinocytes; assay: as above; assay type: cell-based; conditions: increasing concentration (FIG. 1)
Excerpt: as §1

[3] = system: squamous cell carcinoma (SCC-25) cell line; assay: as above; assay type: cell-based; conditions: SCC-25, increasing concentration (FIG. 1)
Excerpt: as §1

[4] = system: melanoma (SK-MEL-28) cell line; assay: as above; assay type: cell-based; conditions: SK-MEL-28, increasing concentration (FIG. 1)
Excerpt: as §1

[5] = system: Human aortic smooth muscle cells (HASMC); assay: Western Blot of ACL expression in normal control cells; assay type: cell-based; conditions: 50 μM or 100 μM
Procedure: (§2) FIG. 3A and FIG. 3B show the effect of Coenzyme Q10 treatment (50 μM or 100 μM) on expression of ATP Citrate lyase (ACL) in SK-MEL-28 melanoma cells. Human aortic smooth muscle cells (HASMC) were used as a control.

[6] = Heat stability of CoQ10 solubilized in Polysorbate 80; assay type: physicochemical; conditions: 25-60% CoQ10 solubilized in Polysorbate 80, heated for several hours at 55° C.
Procedure: Coenzyme Q10 […] is a deep yellow-orange powder and is very hydrophobic with a melting point of approximately 48 degrees centigrade. The active ingredient, CoQ10 […] Cream, ubidecarenone, USP may be adversely affected by heat and light, according to the literature. […] Heating the mixture to 50-55° C. (i.e., 2-7° C. above the melting point of CoQ10) greatly speeds the solubilization of CoQ10. To manufacture the topical CoQ10 cream, two CoQ10 concentrate phases (CoQ10/Polysorbate 80 and water-lecithin-glycol-phenoxyethanol) were each heated separately to 50-55° C. with the water phase added to the solubilized CoQ10 and were mixed with high shear homogenization to form a microemulsion concentrate of CoQ10. The CoQ10 concentrate was then added to a water-in-oil (W/O) cream emulsion base to produce the final CoQ10 cream. The final concentration of CoQ10 in the cream was 3.0%. The CoQ10 3% cream is further described in International Publication No. WO2008/116135, the entire content of which is incorporated by reference in its entirety herein.

[7] = system: SK-MEL-28 melanoma cells; assay: Western Blot of protein expression; assay type: cell-based
Procedure: FIG. 2A and FIG. 2B show the expression of isocitrate dehydrogenase (IDH-1) in SK-MEL-28 melanoma cells treated with increasing concentration of Coenzyme Q10 (50 μM or 100 μM).
as §2
FIG. 4A and FIG. 4B show the effect of Coenzyme Q10 on expression of p53, pl4ARF and MDM2 in SK-MEL-28 melanoma cells.
Bcl-2, Bax and Caspase 3 are pro- and anti-apoptotic markers regulating cell death pathways. A beta-actin loading control was used.

[8] = system: SCC cells; assay: Apoptosis Array gene regulation; assay type: cell-based; conditions: 100 uM Q10, SCC cells
Procedure: Table 3, shown above and reproduced below, lists the genes in SCC cells that are regulated by 100 uM Q10 treatment when analyzed by the Apoptosis Array.

[9] = system: IL6; assay: Upregulation of inflammatory cytokines after topical CoQ10; conditions: topical application
[10] = system: SCC cell line (SCC-25); assay: Proteomic analysis of SCC cell line; assay type: cell-based; conditions: 100 uM CoQ10, SCC-25
Procedure: Next, a proteomic analysis of an in-vitro model of squamous cell carcinoma, SCC cell line (SCC-25), was undertaken to delineate the underlying mechanistic regulating effect of the CoQ10 compositions of the invention. Table 1, shown above and reproduced below, lists the proteins identified to have a differential response to 100 uM CoQ10 treatment in SCC cells at 6 and 24 hours.

[11] = SK-MEL-28, 50 μM or 100 μM for 12 or 24 hours
[12] = direction: Decrease, at 6 and 24 hr
[13] = direction: Decrease, at 24 hr only
[14] = direction: Increase, at 6 and 24 hr

## COC1=C(OC)C(=O)C(C/C=C(\C)CC/C=C(\C)CC/C=C(\C)CC/C=C(\C)CC/C=C(\C)CC/C=C(\C)CC/C=C(\C)CC/C=C(\C)CC/C=C(\C)CCC=C(C)C)=C(C)C1=O [CoQ10, Coenzyme Q10]
[1]
  cell proliferation rate: no effect
[2]
  cell proliferation rate: no effect
[3]
  cell proliferation rate: dose dependent decrease
[3]; listed as Coenzyme Q10
  cell proliferation rate: concentration dependent decrease
[4]
  cell proliferation rate: dose dependent decrease
[4]; listed as Coenzyme Q10
  cell proliferation rate: concentration dependent decrease
[5]
  expression of ATP Citrate lyase (ACL): not observed
[6]
  breakdown of CoQ10 on heating: no measurable breakdown
[7]; SK-MEL-28 (FIG. 4)
  expression of MDM2: decrease
[7]; SK-MEL-28, 50 μM or 100 μM
  expression of ATP Citrate lyase (ACL): concentration dependent decrease
  expression of isocitrate dehydrogenase (IDH-1): concentration dependent increase
[7]; [11]
  expression of anti-apoptotic bcl-2 protein: concentration dependent decrease
  expression of caspase 3: progressive dose-dependent increase
  expression of pro-apoptotic bax: concentration dependent increase
[8]; 6 hours
  BCL2L1 gene Regulation: Down regulated at 6 hours and
  CARD6 gene Regulation: Down regulated at 6 hours.
[8]; 24 hours
  AKT1 gene Regulation: then up regulated at 24 hours.
  BAG4 gene Regulation: Up regulated at 24 hours.
  BAX gene Regulation: Up regulated at 24 hours.
  BCL2L1 gene Regulation: then up regulated at 24 hours.
  BNIP3 gene Regulation: Down regulated at 24 hours.
  CASP6 gene Regulation: Up regulated at 24 hours.
  CASP7 gene Regulation: Up regulated at 24 hours.
  GADD45A gene Regulation: Up regulated at 24 hours.
  TP53 gene Regulation: Up regulated at 24 hours.
  TP73 gene Regulation: then up regulated at 24 hours.
[9]
  upregulation of inflammatory cytokines (IL6): block the upregulation
[10]; at 24 hr
  NM23 protein (NME1) Response: decrease at 24 hr
[10]; [12]
  Keratin 1 (KRT1) Response (fold change): Decrease (2.3) at 6 and 24 hr fold change
  Transaldolase 1 (TALDO1) Response (fold change): Decrease (1.5) at 6 and 24 hr fold change
[10]; direction: Decrease, at 6 hr only
  Rho GDP dissociation inhibitor (GDI) alpha (ARHGDIA) Response (fold change): Decrease (1.5) at 6 hr only fold change
[10]; [13]
  Proteasome activator subunit 3 (PSME3) Response (fold change): Decrease (1.3) at 24 hr only fold change
  Protessome Beta 7 (PSMB7) Response (fold change): Decrease (1.6) at 24 hr only fold change
[10]; [14]
  Heat shock 27 kDa protein 1 (HSPB1) Response (fold change): Increase (−1.9) at 6 and 24 hr fold change
  Keratin 13 (KRT13) Response (fold change): Increase (−1.5) at 6 and 24 hr fold change
  Keratin 14 (KRT14) Response (fold change): Increase (−1.6) at 6 and 24 hr fold change
[10]; printed direction: increase, at 6 hr
  NM23 protein (NME1) Response (fold change): increase (−1.2) at 6 hr, fold change
